# From US8309685B2 (Celgene Avilomics Research, Inc., priority 2007, dated 2012)
# Where two headings read alike, the source gives them in different places.
# What was measured:
# [1] = test system: cell line ET (luc-ubi-neo/ET), human Huh7 hepatoma cell line; assay: Method A: cytotoxicity in ET replicon cells (CytoTox-1); format: cell-based; conditions: concentration decreasing cell viability by 50%, 72 hr
# Experimental: The compounds were assayed to evaluate the antiviral activity and cytotoxicity of compounds in vitro using HCV RNA replicons. This assay used the cell line ET (luc-ubi-neo/ET), which is a human Huh7 hepatoma cell line that contains an HCV RNA replicon with a stable luciferase (Luc) reporter and three cell culture-adaptive mutations. […]
# The ET cell line was grown in Dulbecco's modified essential media (DMEM), 10% fetal bovine serum (FBS), 1% penicillin-streptomycin (pen-strep), 1% glutamine, 250 μg/ml G418 in a 5% CO2 incubator at 37° C. All cell culture reagents were obtained from Mediatech (Manassas, Va.). Cells were trypsinized (1% trypsin:EDTA) and plated out at 5×10^3 cells/well in white 96-well assay plates (Costar) dedicated to cell number (cytotoxicity) or antiviral activity assessments. Drugs were added at six 3-fold concentrations each and the assay was run in DMEM, 5% FBS, 1% pen-strep, 1% glutamine. Human interferon alpha-2b (PBL Biolabs, New Brunswick, N.J.) was included in each run as a positive control compound. Cells were processed 72 hr post drug addition when the cells are still subconfluent. Antiviral activity was measured by analyzing replicon-derived luciferase activity using the Steady-Glo Luciferase Assay System (Promega, Madison, Wis.) according to manufacturer's instruction. The number of cells in each well was determined by CytoTox-1 reagent (Promega). […].
# [2] = test system: HCV RNA replicon in cell line ET (luc-ubi-neo/ET), human Huh7 hepatoma; assay: Method A: HCV RNA replicon antiviral assay (luciferase, ET cell line); format: cell-based, Hepatitis C virus; conditions: Hepatitis C virus, Huh-7
# Summary of the method: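 Six 3-fold dilutions of each drug were tested on subconfluent luc-ubi-neo/ET Huh7 replicon cells (5×10^3/well) for 72 hr at 37 °C. EC50 and EC90 came from luciferase read-out, IC50 from CytoTox-1 cell number, and […]; interferon alpha-2b was run each time as control.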
# [3] = target: T1, D168A mutant of the HCV NS3/4A 1b protease enzyme (Hepatitis C virus genotype 1b, UniProt P26663, D1194A); assay: HCV Protease FRET Assay (IC50_APP), D168A mutant; format: biochemical; conditions: apparent IC50, D168A mutant; read-out: IC50_APP, HCV D168A
# T1 construct: 10× stocks of NS3/4A protease enzyme from Bioenza (Mountain View, Calif.); purchased Bioenza (Mountain View, Calif.)
# [4] = target: T2, wild type HCV NS3/4A 1b protease enzyme (Hepatitis C virus genotype 1b, UniProt P26663); assay: biochemical; format: biochemical; conditions: read-out: Inhibition, WT; WT enzyme, FRET assay
# T2 construct: 10× stocks of NS3/4A protease enzyme from Bioenza (Mountain View, Calif.); purchased Bioenza (Mountain View, Calif.)
# Experimental: (§1) HCV Protease FRET Assay for Wild Type and Mutated NS3/4A 1b Enzymes (IC50)
# (§2) Protease reactions were started with the addition of 45 μL of the FRET substrate and monitored for 120 minutes at λex487/λem514 through Quad^4 monochromoters in a Synergy^4 plate reader from BioTek (Winooski, Vt.). At the conclusion of each assay, progress curves from each well were examined for linear reaction kinetics and fit statistics (R^2, absolute sum of squares).
# (§3) The compound numbers correspond to the compound numbers in Table 3.
# [5] = target: T3, A156T mutant of the HCV NS3/4A 1b protease enzyme (Hepatitis C virus genotype 1b, UniProt P26663, A1182T); assay: HCV Protease FRET Assay (IC50), A156T mutant; format: biochemical; conditions: read-out: Inhibition, HCV A156T; A156T enzyme, FRET assay
# T3 construct: 10× stocks of NS3/4A protease enzyme from Bioenza (Mountain View, Calif.); purchased Bioenza (Mountain View, Calif.)
# Experimental: as §1
# The protocol is a modified FRET-based assay (v—02) from In Vitro Resistance Studies of HCV Serine Protease Inhibitors, 2004, JBC, vol. 279, No. 17, pp 17508-17514.
# 10× stocks of NS3/4A protease enzyme from Bioenza (Mountain View, Calif.) and 1.13× 5-FAM/QXL™ 520 FRET peptide substrate from Anaspec (San Jose, Calif.) were prepared in 50 mM HEPES, pH 7.8, 100 mM NaCl, 5 mM DTT and 20% glycerol. 5 μL of each enzyme were pre-incubated in a Corning (#3573) 384-well, black, non-treated microtiter plate (Corning, N.Y.) for 30 min at 25° C. with a 0.5 μL volume of 50% DMSO and serially diluted compounds prepared in 50% DMSO. Protease reactions were started with the addition of 45 μL of the FRET substrate and monitored for 120 minutes at λex487/λem514 through Quad^4 monochromoters in a Synergy^4 plate reader from BioTek (Winooski, Vt.). At the conclusion of each assay, progress curves from each well were examined for linear reaction kinetics and fit statistics (R^2, absolute sum of squares). Initial velocity (0 minutes to 30+ minutes) from each reaction was determined from the slope of a plot of relative fluorescence units vs time (minutes) and then plotted against inhibitor concentration to estimate IC50 from log[Inhibitor] vs Response, Variable Slope model in GraphPad Prism from GraphPad Software (San Diego, Calif.).
# The compound numbers correspond to the compound numbers in Table 3. […] ;
# [6] = target: T2, wild type HCV NS3/4A 1b protease enzyme; assay: HCV Protease FRET Assay (IC50_APP), wild type; format: biochemical; conditions: read-out: IC50_APP, WT; apparent IC50, wild type NS3/4A 1b
# [7] = target: T1, D168A mutant of the HCV NS3/4A 1b protease enzyme; assay: HCV Protease FRET Assay (IC50), D168A mutant; format: biochemical; conditions: read-out: Inhibition, HCV D168A; D168A enzyme, FRET assay
# Experimental: as §1, §2, §3
# [8] = target: T3, A156T mutant of the HCV NS3/4A 1b protease enzyme; assay: HCV Protease FRET Assay (IC50_APP), A156T mutant; format: biochemical; conditions: apparent IC50, A156T mutant; read-out: IC50_APP, HCV A156T
# [9] = Replicon, assay of Example 22, 72 hr, read-out: Inhibition, Replicon
# [10] = assay described in Example 22, read-out: Replicon (IC50)
smiles,measurement,setting,value
C#CCN(C)C(=O)CCCC(=O)N[C@@H](CNC(=O)C=C)C(=O)N1C[C@H](Oc2cc(-c3ccccc3)nc3cc(OC)ccc23)C[C@H]1C(=O)N[C@]1(C(=O)NS(=O)(=O)c2ccccc2)C[C@H]1C=C [Compound I-42],"Inhibition, Cytotoxicity",[1],"E (IC50≧10,000 nM)"
same,IC90,[2]; assay described in Example 22,> 10000 nM
same,IC50,[2]; [9],> 10000 nM
same,IC50,[2]; [10],> 10000 nM
same,IC50,[3],100 to 1000 nM
same,IC50,[4],< 10 nM
same,IC50,[5],100 to 1000 nM
same,IC50,[6],10 to 100 nM
"C=C[C@@H]1C[C@]1(NC(=O)[C@@H]1C[C@@H](Oc2cc(-c3ccccc3)nc3cc(OC)ccc23)CN1C(=O)[C@H](CNC(=O)/C=C/CN(C)C)NC(=O)OC(C)(C)C)C(=O)NS(=O)(=O)c1ccccc1 [Compound I-5, N-[(1,1-dimethylethoxy)carbonyl]-3-[(4-dimethylamino-2-butenoyl)amino]-L-alanyl-(4R)-4-[(7-methoxy-2-phenyl-4-quinolinyl)oxy]-L-prolyl-1-amino-2-ethenyl-N-(phenylsulfonyl)-(1R,2S)-cyclopropanecarboxamide]","Inhibition, Cytotoxicity",[1],"E (IC50≧10,000 nM)"
same,IC50,[7],1000 to 10000 nM
same,IC50,[2]; [9],1000 to 10000 nM
same,IC50,[4],< 10 nM
same,IC50,[5],1000 to 10000 nM
"C=C[C@@H]1C[C@]1(NC(=O)[C@@H]1C[C@@H](Oc2cc(-c3ccccc3)nc3cc(OC)ccc23)CN1C(=O)CNC(=O)C#CC)C(=O)NS(=O)(=O)C1CC1 [Compound I-48, (2S,4R)-1-(2-but-2-ynamidoacetyl)-N-((1R,2S)-1-(cyclopropylsulfonylcarbamoyl)-2-vinylcyclopropyl)-4-(7-methoxy-2-phenylquinolin-4-yloxy)pyrrolidine-2-carboxamide]","Inhibition, Cytotoxicity",[1],"E (IC50≧10,000 nM)"
same,IC50,[7],1000 to 10000 nM
same,IC50,[2]; [9],1000 to 10000 nM
same,IC50,[4],10 to 100 nM
"C=CC(=O)N1CCC(NC(=O)OC(C)(C)C)(C(=O)N2C[C@H](Oc3cc(-c4ccccc4)nc4cc(OC)ccc34)C[C@H]2C(=O)N[C@]2(C(=O)NS(=O)(=O)c3ccccc3)C[C@H]2C=C)CC1 [Compound I-26, tert-butyl-1-acryloyl-4-((2S,4R)-4-(7-methoxy-2-phenylquinolin-4-yloxy)-2-((1R,2S)-1-(phenylsulfonylcarbamoyl)-2-vinylcyclopropylcarbamoyl)pyrrolidine-1-carbonyl)piperidin-4-ylcarbamate]","Inhibition, Cytotoxicity",[1],"E (IC50≧10,000 nM)"
same,IC50,[7],100 to 1000 nM
same,IC50,[2]; [9],> 10000 nM
same,IC50,[4],< 10 nM
"C=C[C@@H]1C[C@]1(NC(=O)[C@@H]1C[C@@H](Oc2cc(-c3ccccc3)nc3cc(OC)ccc23)CN1C(=O)[C@H](CN(C)C(=O)/C=C/CN(C)C)NC(=O)OC(C)(C)C)C(=O)NS(=O)(=O)c1ccccc1 [Compound I-30, tert-butyl-(S)-3-((E)-4-(dimethylamino)-N-methylbut-2-enamido)-1-((2S,4R)-4-(7-methoxy-2-phenylquinolin-4-yloxy)-2-((1R,2S)-1-(phenylsulfonylcarbamoyl)-2-vinylcyclopropylcarbamoyl)pyrrolidin-1-yl)-1-oxopropan-2-ylcarbamate]","Inhibition, Cytotoxicity",[1],"E (IC50≧10,000 nM)"
same,IC50,[7],100 to 1000 nM
same,IC90,[2]; assay described in Example 22,100 to 1000 nM
same,IC50,[2]; [9],10 to 100 nM
same,IC50,[2]; [10],10 to 100 nM
same,IC50,[3],1000 to 10000 nM
same,IC50,[4],< 10 nM
same,IC50,[8],1000 to 10000 nM
same,IC50,[6],10 to 100 nM
"C=C[C@@H]1C[C@]1(NC(=O)[C@@H]1C[C@@H](Oc2cc(-c3ccccc3)nc3cc(OC)ccc23)CN1C(=O)CNC(=O)/C=C/C)C(=O)NS(=O)(=O)c1ccccc1 [Compound I-47, (2S,4R)-1-(2-(E)-but-2-enamidoacetyl)-4-(7-methoxy-2-phenylquinolin-4-yloxy)-N-((1R,2S)-1-(phenylsulfonylcarbamoyl)-2-vinylcyclopropyl)pyrrolidine-2-carboxamide]","Inhibition, Cytotoxicity",[1],"E (IC50≧10,000 nM)"
same,IC50,[7],1000 to 10000 nM
same,IC50,[2]; [9],1000 to 10000 nM
same,IC50,[4],10 to 100 nM
"C=C[C@@H]1C[C@]1(NC(=O)[C@@H]1C[C@@H](Oc2cc(-c3ccccc3)nc3cc(OC)ccc23)CN1C(=O)C1(NC(=O)OC(C)(C)C)CCN(C(=O)CCl)CC1)C(=O)NS(=O)(=O)c1ccccc1 [Compound I-25, tert-butyl-1-(2-chloroacetyl)-4-((2S,4R)-4-(7-methoxy-2-phenylquinolin-4-yloxy)-2-((1R,2S)-1-(phenylsulfonylcarbamoyl)-2-vinylcyclopropylcarbamoyl)pyrrolidine-1-carbonyl)piperidin-4-ylcarbamate]","Inhibition, Cytotoxicity",[1],C (IC50>100 nM and ≦1000 nM)
same,IC50,[7],10 to 100 nM
same,IC50,[2]; [9],> 10000 nM
same,IC50,[4],< 10 nM
"C=C[C@@H]1C[C@]1(NC(=O)[C@@H]1C[C@@H](Oc2cc(-c3ccccc3)nc3cc(OC)ccc23)CN1C(=O)[C@H](CN(C)C(=O)C(=C)C)NC(=O)OC(C)(C)C)C(=O)NS(=O)(=O)c1ccccc1 [Compound I-32, tert-butyl-(S)-1-((2S,4R)-4-(7-methoxy-2-phenylquinolin-4-yloxy)-2-((1R,2S)-1-(phenylsulfonylcarbamoyl)-2-vinylcyclopropylcarbamoyl)pyrrolidin-1-yl)-3-(N-methylmethacrylamido)-1-oxopropan-2-ylcarbamate]","Inhibition, Cytotoxicity",[1],"E (IC50≧10,000 nM)"
same,IC50,[7],1000 to 10000 nM
same,IC50,[2]; [9],100 to 1000 nM
same,IC50,[4],< 10 nM
"C=CC(=O)NC[C@H](NC(=O)OC(C)(C)C)C(=O)N1C[C@H](Oc2cc(-c3ccccc3)nc3cc(OC)ccc23)C[C@H]1C(=O)N[C@]1(C(=O)O)C[C@H]1C=C [Compound I-41, (1R,2S)-1-((2S,4R)-1-((S)-3-acrylamido-2-(tert-butoxycarbonylamino)propanoyl)-4-(7-methoxy-2-phenylquinolin-4-yloxy)pyrrolidine-2-carboxamido)-2-vinylcyclopropanecarboxylic acid]","Inhibition, Cytotoxicity",[1],"E (IC50≧10,000 nM)"
same,IC50,[7],1000 to 10000 nM
same,IC50,[2]; [9],> 10000 nM
same,IC50,[4],10 to 100 nM
